The source of these data is US12440496B2, “Natriuretic peptide receptor a agonists useful for the treatment of cardiometabolic diseases, kidney disease and diabetes” (Merck Sharp & Dohme LLC, priority 2019, dated 2025).

A word on the EC50: it is the concentration that produces a half-maximal response.

Where a name gives a salt, the structure may show the parent alone.

This test has as its target T1, hNPRA (Homo sapiens, UniProt P16066).
T1 construct: expressed in transfected cells
T1 sequence (P16066 33-1061): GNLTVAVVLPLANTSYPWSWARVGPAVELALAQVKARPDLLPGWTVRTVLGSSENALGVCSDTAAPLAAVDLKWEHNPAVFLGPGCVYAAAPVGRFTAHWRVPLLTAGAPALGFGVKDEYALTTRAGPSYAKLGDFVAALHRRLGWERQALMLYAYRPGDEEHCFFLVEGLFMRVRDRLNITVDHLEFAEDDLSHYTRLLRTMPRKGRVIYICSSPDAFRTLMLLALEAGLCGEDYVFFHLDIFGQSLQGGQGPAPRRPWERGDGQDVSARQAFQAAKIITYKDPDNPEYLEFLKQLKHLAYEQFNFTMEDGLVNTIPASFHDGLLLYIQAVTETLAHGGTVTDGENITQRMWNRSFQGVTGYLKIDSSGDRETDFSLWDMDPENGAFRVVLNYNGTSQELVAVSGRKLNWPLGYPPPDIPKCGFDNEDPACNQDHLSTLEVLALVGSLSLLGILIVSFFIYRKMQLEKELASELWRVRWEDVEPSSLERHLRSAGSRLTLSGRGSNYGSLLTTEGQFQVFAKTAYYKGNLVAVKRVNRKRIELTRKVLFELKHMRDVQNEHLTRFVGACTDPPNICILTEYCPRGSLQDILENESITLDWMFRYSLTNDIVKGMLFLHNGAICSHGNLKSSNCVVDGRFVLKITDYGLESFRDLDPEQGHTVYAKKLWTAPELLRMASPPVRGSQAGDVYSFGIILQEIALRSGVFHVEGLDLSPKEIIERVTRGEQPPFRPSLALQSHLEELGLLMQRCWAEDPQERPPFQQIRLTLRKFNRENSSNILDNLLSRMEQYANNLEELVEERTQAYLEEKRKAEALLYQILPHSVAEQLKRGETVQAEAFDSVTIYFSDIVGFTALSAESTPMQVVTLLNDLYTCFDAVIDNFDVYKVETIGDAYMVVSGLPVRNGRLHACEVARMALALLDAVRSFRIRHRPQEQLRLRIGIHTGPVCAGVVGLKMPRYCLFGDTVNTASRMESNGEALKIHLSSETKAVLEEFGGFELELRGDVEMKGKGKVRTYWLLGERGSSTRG
The test is described as follows: NPRA Functional Cell Assay (cGMP HTRF, NPRA HEK JumpIn stable cells). The format is cell-based. The conditions noted are these: cGMP production, 1 hour at 37° C., 10-point dose response. A digest of the protocol: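 cGMP HTRF read-out after 1 hour compound treatment at 37° C. of human NPRA-expressing HEK JumpIn cells, 1500 cells/well, in buffer with phosphodiesterase inhibitors IBMX and RO20 (100 uM each). Signal converted to [cGMP] by calibration curve; EC50s fitted by 4-parameter logistic; 50 nM h-ANP as positive response.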
In general terms: In TR-FRET formats the signal depends on donor and acceptor labels being close together.
In the case of `CC(C)(C)[C@H]1CCc2nc3sc(C(=O)N[C@H](CCN4CCC(O)CC4)c4ccc(N5CCOCS5(=O)=O)nc4)nc3cc2C1` [Example 273, (S)-7-(tert-butyl)-N-((R)-1-(6-(3,3-dioxido-1,3,4-oxathiazinan-4-yl)pyridin-3-yl)-3-(4-hydroxypiperidin-1-yl)propyl)-5,6,7,8-tetrahydrothiazolo[5,4-b]quinoline-2-carboxamide], the EC50 came to 182 nM.

On to `CC(C)(C)[C@H]1CCc2nc3sc(C(=O)N[C@H](CCN[C@@H]4C[C@H](CO)[C@@H](O)[C@H]4O)c4ccc(-c5ccc(=O)[nH]c5)cc4)cc3cc2C1` (racemic) [Example 62, [rac-(1R,2S,3R,4R)-2,3-dihydroxy-4-(hydroxymethyl)cyclopentyl]-[rac-(3R)-3-[4-(6-oxo-1H-pyridin-3-yl)phenyl]-3-[rac-(6S)-6-tert-butyl-5,6,7,8-tetrahydrothieno[2,3-b]quinoline-2-carbonyl]amino]propyl] ammonium;formate], for which it took 1130 nM to reach a half-maximal effect (EC50).

Compound `CC(C)(C)[C@H]1CCc2nc3sc(C(=O)N[C@H](CCN4CCC(O)CC4)c4cccc(N5CCNC5=O)c4)nc3cc2C1` (racemic) [Example 117, rac-(7S)-7-tert-butyl-N-[rac-(1R)-3-(4-hydroxypiperidin-1-ium-1-yl)-1-[3-(2-oxoimidazolidin-1-yl)phenyl]propyl]-5,6,7,8-tetrahydrothiazolo[5,4-b] quinoline-2-carboxamide; 2,2,2-trifluoroacetate] displayed a concentration for a half-maximal effect (EC50) of 795 nM.

With `CC(C)(C)[C@H]1CCc2nc3sc(C(=O)N[C@H](CCN4CCC(O)(CN)CC4)c4ccc(-c5cnc(O)c(F)c5)cc4)nc3cc2C1` (racemic) [Example 199, [4-hydroxy-1-[rac-(3R)-3-[4-(5-fluoro-6-hydroxy-3-pyridyl)phenyl]-3-[[rac-(7S)-7-tert-butyl-5,6,7,8-tetrahydrothiazolo[5,4-b]quinoline-2-carbonyl]amino]propyl]-4-piperidyl]methylammonium; formate], the EC50 worked out at 222 nM.

The compound `CC(C)(C)[C@H]1CCc2nc3sc(C(=O)N[C@H](CCN4CCCCC4)c4cccc(NS(C)(=O)=O)c4)cc3cc2C1` (racemic) [Example 11, ammonium; methylsulfonyl-[3-[rac-(1R)-3-(1-piperidyl)-1-[rac-(6S)-6-tert-butyl-5,6,7,8-tetrahydrothieno[2,3-b]quinoline-2-carbonyl]amino]propyl]phenyl] azanide] displayed a concentration for a half-maximal effect (EC50) of 718 nM.

With `CC1(NC(=O)c2cccc([C@@H](CCN3CCC(C(=O)O)CC3)NC(=O)c3nc4cc5c(nc4s3)CC[C@H](C(C)(C)C)C5)c2)CNC1` (racemic) [Example 125, 1-[rac-(3R)-3-[3-[(3-methylazetidin-1-ium-3-yl)carbamoyl]phenyl]-3-[[rac-(7S)-7-tert-butyl-5,6,7,8-tetrahydrothiazolo [5,4-b]quinoline-2-carbonyl]amino]propyl] piperidine-4-carboxylic acid; 2,2,2-trifluoroacetate], the concentration giving a half-maximal response (EC50) worked out at 2000 nM.

For `CC(C)(C)[C@H]1CCc2nc3sc(C(=O)N[C@H](CCN4CCC(O)CC4)c4cccc(C(=O)N5CC(N6CCOCC6)C5)c4)nc3cc2C1` (racemic) [Example 157, rac-(7S)-7-tert-butyl-N-[rac-(1R)-3-(4-hydroxy-1-piperidyl)-1-[3-(3-morpholinoazetidine-1-carbonyl)phenyl]propyl]-5,6,7,8-tetrahydrothiazolo[5,4-b]quinoline-2-carboxamide], the EC50 was 876 nM.

Compound `CC(C)(C)[C@H]1CCc2nc3sc(C(=O)N[C@H](CCN4CCC(O)C4)c4ccc(-c5ccc(=O)[nH]c5)cc4)cc3cc2C1` (mixture of isomers) [Example 41, rac-(6S)-6-tert-butyl-N-[rac-(1R)-3-(3-hydroxypyrrolidin-1-ium-1-yl)-1-[4-(6-oxo-1H-pyridin-3-yl)phenyl]propyl]-5,6,7,8-tetrahydrothieno[2,3-b]quinoline-2-carboxamide;formate] yielded an EC50 of 656 nM.

`CN(C)S(=O)(=O)Nc1ccc([C@@H](CCN2CC=CCC2)NC(=O)c2nc3cc4c(nc3s2)CC[C@H](C(C)(C)C)C4)cn1` (racemic) [Example 208, rac-(7S)-7-tert-butyl-N-[rac-(1R)-1-[6-(dimethylsulfamoylamino)-3-pyridyl]-3-(1,2,3,6-tetrahydropyridin-1-ium-1-yl)propyl]-5,6,7,8-tetrahydrothiazolo[5,4-b]quinoline-2-carboxamide; 2,2,2-trifluoroacetate] displayed an EC50 of 712 nM.

In the case of `CC1(O)CCN(CC[C@@H](NC(=O)c2cc3cc4c(nc3s2)CC[C@H](C(C)(C)C)C4)c2ccc(-c3ccc(=O)[nH]c3)cc2)CC1` (racemic) [Example 45, rac-(6S)-6-tert-butyl-N-[rac-(1R)-3-(4-hydroxy-4-methyl-piperidin-1-ium-1-yl)-1-[4-(6-oxo-1H-pyridin-3-yl)phenyl]propyl]-5,6,7,8-tetrahydrothieno[2,3-b]quinoline-2-carboxamide;formate], the half-maximal effective concentration (EC50) was found to be 673 nM.

`COC1CCN(CC[C@@H](NC(=O)c2nc3cc4c(nc3s2)CC[C@H](C(C)(C)C)C4)c2cccc(C(=O)NC3CN(C)C3)c2)CC1` (racemic) [Example 109, rac-(7S)-7-tert-butyl-N-[rac-(1R)-3-(4-methoxy-1-piperidyl)-1-[3-[(1-methylazetidin-1-ium-3-yl)carbamoyl]phenyl]propyl]-5,6,7,8-tetrahydrothiazolo[5,4-b] quinoline-2-carboxamide; 2,2,2-trifluoroacetate]: the concentration for a half-maximal effect (EC50) is 629 nM.

`CC(C)(C)[C@H]1CCc2nc3sc(C(=O)N[C@H](CCN4CCC(O)CC4)c4ccc(-c5cnsc5)cc4)nc3cc2C1` (racemic) [Example 180, rac-(7S)-7-tert-butyl-N-[rac-(1R)-3-(4-hydroxy-1-piperidyl)-1-(4-isothiazol-4-ylphenyl)propyl]-5,6,7,8-tetrahydrothiazolo[5,4-b]quinoline-2-carboxamide]: the concentration giving a half-maximal response (EC50) is 1440 nM.

In turn, `O=C1CN(c2ccc([C@@H](CCN3CCC(O)CC3)NC(=O)c3nc4cc5c(nc4s3)CC[C@H](C3(C(F)(F)F)CC3)C5)cn2)C(=O)N1` [Example 221, (S)-N-((R)-1-(6-(2,4-dioxoimidazolidin-1-yl)pyridin-3-yl)-3-(4-hydroxypiperidin-1-yl)propyl)-7-(1-(trifluoromethyl)cyclopropyl)-5,6,7,8-tetrahydrothiazolo[5,4-b]quinoline-2-carboxamide] had an EC50 of 1140 nM.

`CN(C)CC[C@@H](NC(=O)c1nc2cc3c(nc2s1)CC[C@H](C(C)(C)C)C3)c1cccc(C(=O)N2CCNCC2)c1` (racemic) [Example 97, rac-(7S)-7-tert-butyl-N-[rac-(1R)-3-(dimethyl-amino)-1-[3-(piperazine-1-carbonyl)phenyl]propyl]-5,6,7,8-tetrahydrothiazolo[5,4-b] quinoline-2-carboxamide]: the concentration for a half-maximal effect (EC50) stood at 1380 nM.

`CC(C)(C)[C@H]1CCc2nc3sc(C(=O)N[C@H](CCN4CC5CC4CO5)c4ccc(-c5ccc(=O)[nH]c5)cc4)cc3cc2C1` (mixture of isomers) [Example 53, rac-(6S)-6-tert-butyl-N-[rac-(1R)-3-(2-oxa-5-azoniabicyclo[2.2. 1]heptan-5-yl)-1-[4-(6-oxo-1H-pyridin-3-yl)phenyl]propyl]-5,6,7,8-tetrahydrothieno[2,3-b]quinoline-2-carboxamide;formate] registered an EC50 of 755 nM.
